Test results: the supplement of paper PMC11451515

System: SEM cells
Experiment: cell viability relative to DMSO control; higher = less cytotoxic
Settings: 48 h
How it was run: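 Cells were incubated for 48 h at 37°C before CellTiter-Glo One luminescence was read. The cells were NOMO1 or SEM (500 cells/well) or P12-Ichikawa (1000 cells/well) leukemia cells, adapted for at least four passages in each medium and seeded in 1536-well plates (5 μl). Dosing used library compounds in DMSO applied by pin over 11 threefold points, 47 μM to 0.79 nM. Viability is the per-plate percentage of DMSO wells, with cell-free wells as background.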

[1] = HPLM + 10% dialyzed FBS, 0.000781 µM
[2] = HPLM + 10% dialyzed FBS, 0.00234 µM
[3] = HPLM + 10% dialyzed FBS, 0.00702 µM
[4] = HPLM + 10% dialyzed FBS, 0.0211 µM
[5] = HPLM + 10% dialyzed FBS, 0.0632 µM
[6] = HPLM + 10% dialyzed FBS, 0.19 µM
[7] = HPLM + 10% dialyzed FBS, 0.569 µM
[8] = HPLM + 10% dialyzed FBS, 1.71 µM
[9] = HPLM + 10% dialyzed FBS, 5.12 µM
[10] = HPLM + 10% dialyzed FBS, 15.4 µM
[11] = HPLM + 10% dialyzed FBS, 46.1 µM
[12] = RPMI 5 mM glucose + 10% FBS, 0.000781 µM
[13] = RPMI 5 mM glucose + 10% FBS, 0.00234 µM
[14] = RPMI 5 mM glucose + 10% FBS, 0.00702 µM
[15] = RPMI 5 mM glucose + 10% FBS, 0.0211 µM
[16] = RPMI 5 mM glucose + 10% FBS, 0.0632 µM
[17] = RPMI 5 mM glucose + 10% FBS, 0.19 µM
[18] = RPMI 5 mM glucose + 10% FBS, 0.569 µM
[19] = RPMI 5 mM glucose + 10% FBS, 1.71 µM
[20] = RPMI 5 mM glucose + 10% FBS, 5.12 µM
[21] = RPMI 5 mM glucose + 10% FBS, 15.4 µM
[22] = RPMI 5 mM glucose + 10% FBS, 46.1 µM
[23] = RPMI 5 mM glucose + 10% dialyzed FBS, 0.000781 µM
[24] = RPMI 5 mM glucose + 10% dialyzed FBS, 0.00234 µM
[25] = RPMI 5 mM glucose + 10% dialyzed FBS, 0.00702 µM
[26] = RPMI 5 mM glucose + 10% dialyzed FBS, 0.0211 µM
[27] = RPMI 5 mM glucose + 10% dialyzed FBS, 0.0632 µM
[28] = RPMI 5 mM glucose + 10% dialyzed FBS, 0.19 µM
[29] = RPMI 5 mM glucose + 10% dialyzed FBS, 0.569 µM
[30] = RPMI 5 mM glucose + 10% dialyzed FBS, 1.71 µM
[31] = RPMI 5 mM glucose + 10% dialyzed FBS, 5.12 µM
[32] = RPMI 5 mM glucose + 10% dialyzed FBS, 15.4 µM
[33] = RPMI 5 mM glucose + 10% dialyzed FBS, 46.1 µM

SMILES | cell viability [1] | cell viability [2] | cell viability [3] | cell viability [4] | cell viability [5] | cell viability [6] | cell viability [7] | cell viability [8] | cell viability [9] | cell viability [10] | cell viability [11] | cell viability [12] | cell viability [13] | cell viability [14] | cell viability [15] | cell viability [16] | cell viability [17] | cell viability [18] | cell viability [19] | cell viability [20] | cell viability [21] | cell viability [22] | cell viability [23] | cell viability [24] | cell viability [25] | cell viability [26] | cell viability [27] | cell viability [28] | cell viability [29] | cell viability [30] | cell viability [31] | cell viability [32] | cell viability [33]
CN(CCOc1ccc(NS(C)(=O)=O)cc1)CCc1ccc(NS(C)(=O)=O)cc1 | 102% | 108% | 105% | 107% | 104% | 120% | 111% | 117% | 128% | 93.9% | 131% | 89.9% | 111% | 101% | 110% | 122% | 101% | 119% | 107% | 109% | 79.7% | 94.6% | 85.2% | 95.2% | 102% | 100% | 94% | 100% | 96.9% | 104% | 96.1% | 56.1% | 91.6%
COC/1=C/[C@@H]2[C@@H]3CC4=C(C(=C(OC)C=C4)O)[C@]2(CCN3C)CC1=O | 116% | 121% | 130% | 122% | 133% | 139% | 135% | 119% | 128% | 115% | 129% | – | – | – | – | – | – | – | – | – | – | – | 106% | 128% | 121% | 116% | 135% | 139% | 146% | 127% | 122% | 137% | 125%
C[C@]12CC[C@@H]3c4ccc(O)cc4CC[C@H]3[C@@H]1CC[C@@H]2O | 109% | 110% | 121% | 115% | 98.9% | 119% | 113% | 97.4% | 95.7% | 85.2% | 23.4% | 124% | 124% | 129% | 142% | 125% | 123% | 118% | 114% | 113% | 84% | 21.1% | 127% | 118% | 124% | 144% | 116% | 121% | 114% | 115% | 105% | 82% | 16.5%
CCCc1nc2c(C)cc(-c3nc4ccccc4n3C)cc2n1Cc1ccc(-c2ccccc2C(=O)O)cc1 | 117% | 115% | 123% | 120% | 124% | 140% | 100% | 71.4% | 127% | 140% | 144% | 114% | 121% | 152% | 133% | 124% | 124% | 101% | 84.1% | 159% | 138% | 137% | 103% | 138% | 119% | 92.4% | 120% | 125% | 87.8% | 64% | 120% | 116% | 132%
O=C(O)c1ccc(-c2c[nH]c3ncc(-c4ccccc4)cc23)cc1C1CCCC1 | 98% | 103% | 113% | 113% | 118% | 125% | 99% | 108% | 82.4% | 63.5% | 66.6% | 111% | 110% | 111% | 109% | 121% | 113% | 101% | 91.8% | 69.8% | 47.1% | 43.2% | 114% | 116% | 119% | 138% | 114% | 115% | 123% | 101% | 65.3% | 44.1% | 35.3%
O=C(c1ccc(/C=C/c2n[nH]c3ccccc23)cc1)N1CCNCC1 | 82.7% | 77.8% | 83.4% | 79% | 60.7% | 53.2% | 48.1% | 16.3% | 20% | 19.3% | 19.8% | 109% | 120% | 106% | 85.3% | 82.7% | 56.2% | 62.1% | 10.9% | 11.7% | 12.3% | 13.3% | 75.8% | 78.2% | 73.1% | 80.2% | 66.3% | 51.9% | 38.2% | 15.9% | 15.9% | 14.6% | 13.3%
C[C@H]1[C@H](O)O[C@@H]2O[C@@]3(C)CC[C@H]4[C@H](C)CC[C@@H]1[C@@]24OO3 | 86.7% | 82.3% | 90.2% | 92.7% | 95.8% | 109% | 105% | 98.3% | 41.5% | 22.4% | 17.9% | 82.3% | 93% | 90.8% | 89.3% | 96.9% | 94.8% | 93.1% | 74.5% | 47.1% | 10.1% | 5.91% | 74.7% | 82.1% | 89% | 82.8% | 76% | 111% | 89.8% | 87.1% | 17.6% | 8.87% | 8.68%
CCCC(CCC)C(=O)[O-] | 87% | 88.8% | 110% | 97.5% | 92.3% | 91% | 103% | 112% | 93.3% | 100% | 88.6% | 104% | 103% | 121% | 123% | 115% | 102% | 125% | 125% | 115% | 116% | 135% | 74.3% | 105% | 95.3% | 124% | 89.7% | 96.8% | 107% | 118% | 107% | 98.1% | 108%
CN1/C=C(\N=C(NC2=CC=C(C=C2)C(=O)N3CCOCC3)/C1=O)/C4=C(C)C(=CC=C4)NC(=O)C5=CC=C(C=C5)C(C)(C)C | 111% | 97.2% | 105% | 48.6% | 106% | 116% | 97.5% | 110% | 106% | 89.5% | 92.2% | 110% | 102% | 106% | 46.8% | 101% | 86.6% | 110% | 92.8% | 104% | 83.3% | 66% | 106% | 108% | 105% | 50.7% | 120% | 107% | 100% | 111% | 92.2% | 98.5% | 68.6%
O=C(NCCCNc1nc(Nc2cccc(NC(=O)N3CCCC3)c2)ncc1I)c1cccs1 | 55.6% | 91.1% | 102% | 75.8% | 46.5% | 60.8% | 50.4% | 27.2% | 32.9% | 76.7% | 70.6% | 74% | 124% | 124% | 111% | 68.7% | 85.1% | 33.1% | 13.4% | 37.5% | 77.7% | 68.9% | 46.5% | 96.9% | 87.4% | 78.9% | 36.8% | 64.9% | 42.6% | 23.9% | 28.4% | 79.6% | 62.6%
O=[S+]([O-])(CCSSCC[S+](=O)([O-])[O][Na])[O][Na] | 78.9% | 95.5% | 101% | 65.2% | 120% | 104% | 102% | 103% | 107% | 108% | 118% | 117% | 97.5% | 116% | 73.7% | 115% | 112% | 119% | 103% | 124% | 112% | 111% | 103% | 99.9% | 113% | 72.8% | 134% | 120% | 126% | 120% | 121% | 126% | 139%
O=C(Nc1ccc([N+](=O)[O-])cc1Cl)c1cc(Cl)ccc1O | 84.5% | 98.7% | 93.1% | 98.2% | 99.7% | 97.6% | 104% | 43.3% | 24.2% | 64.1% | 33.9% | 75% | 89.7% | 96.8% | 101% | 101% | 105% | 117% | 22.1% | 19.7% | 3.97% | 32.3% | 96.9% | 85.7% | 88.8% | 103% | 96.7% | 99.2% | 123% | 19.6% | 17.1% | 66.3% | 47%
COCCCOc1ccnc(C[S+]([O-])c2nc3ccccc3[nH]2)c1C (stereo unspecified) | 97% | 102% | 110% | 115% | 107% | 113% | 127% | 109% | 102% | 109% | 94.3% | 72.3% | 72.1% | 71.3% | 82.6% | 73.1% | 79% | 78.6% | 76.7% | 65.6% | 81.3% | 75.2% | 97.9% | 110% | 91.3% | 107% | 98.8% | 103% | 109% | 100% | 115% | 108% | 108%
O=C(C1CC1)N1CC[C@@H](Cn2c(-c3ccc(-c4ccc5occc5c4)cc3)nc3cnccc32)C1 | 94.6% | 91.1% | 106% | 108% | 98.8% | 107% | 115% | 108% | 104% | 121% | 102% | 73.9% | 89.5% | 99.9% | 97.9% | 108% | 101% | 99.9% | 110% | 101% | 103% | 85.9% | 113% | 102% | 101% | 111% | 112% | 119% | 129% | 121% | 108% | 114% | 108%
